In US6465429B1, “Antimicrobial cationic peptides” (priority 1995, dated 2002):

Assays:
[1] = system: X. maltophila; experiment: Synergy of peptide and antibiotic, MIC and FIC (checkerboard); type: cell-based; details: agent alone
Procedure: (§1) FICs are performed by checkerboard titrations of peptides in one dimension of a microtiter plate, and of antibiotics in the other dimension, for example. The FIC is calculated by looking at the impact of one antibiotic on the MIC of the other and vice versa. […] Preferably, an FIC of less than 0.5 is obtained for synergism. As used herein, FIC can be determined as follows: [formula]
(§2) Synergism is identified as an FIC of about ≦0.5.

[2] = system: E. cloacae; experiment: as above; type: cell-based; details: Enterobacter cloacae, agent alone
Procedure: as §1, §2

[3] = system: A. calcoaceticus; experiment: as above; type: cell-based; details: Acinetobacter calcoaceticus, agent alone
Procedure: as §1, §2

[4] = system: P. aeruginosa; experiment: microbe, parasite or virus in culture; details: agent alone
Procedure: as §1, §2

[5] = X. maltophila isolate 35, strain 6
[6] = X. maltophila isolate 37, strain 3095
[7] = X. maltophila isolate 38, strain 7901
[8] = X. maltophila isolate 39, strain B3110.1
[9] = X. maltophila isolate 40, strain R1302-1
[10] = X. maltophila isolate 41, strain R4230
[11] = X. maltophila isolate 42, strain TF29-1
[12] = X. maltophila isolate 43, strain TF29-2
[13] = X. maltophila isolate 44, strain W6896-2
[14] = E. cloacae isolate 12, strain ATCC 13047
[15] = E. cloacae isolate 13, strain 37-1
[16] = E. cloacae isolate 14, strain 938-2
[17] = E. cloacae isolate 15, strain B5546
[18] = E. cloacae isolate 16, strain R4148
[19] = E. cloacae isolate 17, strain R4148-2
[20] = E. cloacae isolate 18, strain 3077
[21] = E. cloacae isolate 19, strain 3356
[22] = E. cloacae isolate 20, strain 14269
[23] = E. cloacae isolate 21, strain 14661
[24] = E. cloacae isolate 22, strain 18801
[25] = A. calcoaceticus isolate 1, strain ATCC 23055
[26] = A. calcoaceticus isolate 3, strain 27
[27] = A. calcoaceticus isolate 4, strain 28
[28] = A. calcoaceticus isolate 5, strain 8220
[29] = A. calcoaceticus isolate 6, strain 8221
[30] = A. calcoaceticus isolate 7, strain 8222
[31] = A. calcoaceticus isolate 8, strain 8223
[32] = A. calcoaceticus isolate 9, strain 8224
[33] = A. calcoaceticus isolate 10, strain 8225
[34] = A. calcoaceticus isolate 11, strain 8226
[35] = Pseudomonas aeruginosa, P. aeruginosa isolate 23, strain ATCC 27853
[36] = Pseudomonas aeruginosa, P. aeruginosa isolate 24, strain 34
[37] = Pseudomonas aeruginosa, P. aeruginosa isolate 25, strain 923-1
[38] = Pseudomonas aeruginosa, P. aeruginosa isolate 26, strain 3101
[39] = Pseudomonas aeruginosa, P. aeruginosa isolate 27, strain 14644
[40] = Pseudomonas aeruginosa, P. aeruginosa isolate 28, strain 15036
[41] = Pseudomonas aeruginosa, P. aeruginosa isolate 29, strain 15545
[42] = Pseudomonas aeruginosa, P. aeruginosa isolate 30, strain B3999-1
[43] = Pseudomonas aeruginosa, P. aeruginosa isolate 31, strain U7688-1
[44] = Pseudomonas aeruginosa, P. aeruginosa isolate 32, strain W2897-1
[45] = X. maltophila isolate 36, strain 16
[46] = X. maltophila isolate 45, strain W11291
[47] = A. calcoaceticus isolate 2, strain 23

NC[C@H]1O[C@H](O[C@H]2[C@H](O)[C@@H](O[C@H]3O[C@H](CO)[C@@H](O)[C@H](N)[C@H]3O)[C@H](N)C[C@@H]2N)[C@H](N)C[C@@H]1O [Tobramycin]
MIC [1, 5]: 4 µg/mL | MIC [1, 6]: 32 µg/mL | MIC [1, 7]: 32 µg/mL | MIC [1, 8]: 32 µg/mL | MIC [1, 9]: 32 µg/mL | MIC [1, 10]: 16 µg/mL | MIC [1, 11]: 2 µg/mL | MIC [1, 12]: 2 µg/mL | MIC [1, 13]: 16 µg/mL | MIC [2, 14]: 1 µg/mL | MIC [2, 15]: 1 µg/mL | MIC [2, 16]: 2 µg/mL | MIC [2, 17]: 2 µg/mL | MIC [2, 18]: 1 µg/mL | MIC [2, 19]: 1 µg/mL | MIC [2, 20]: 1 µg/mL | MIC [2, 21]: 1 µg/mL | MIC [2, 22]: 1 µg/mL | MIC [2, 23]: 1 µg/mL | MIC [2, 24]: 1 µg/mL | MIC [3, 25]: 4 µg/mL | MIC [3, 26]: 1 µg/mL | MIC [3, 27]: 128 µg/mL | MIC [3, 28]: 4 µg/mL | MIC [3, 29]: 4 µg/mL | MIC [3, 30]: 4 µg/mL | MIC [3, 31]: 4 µg/mL | MIC [3, 32]: 4 µg/mL | MIC [3, 33]: 4 µg/mL | MIC [3, 34]: 4 µg/mL | MIC [4, 35]: 1 µg/mL | MIC [4, 36]: 64 µg/mL | MIC [4, 37]: 1 µg/mL | MIC [4, 38]: 1 µg/mL | MIC [4, 39]: 2 µg/mL | MIC [4, 40]: 1 µg/mL | MIC [4, 41]: 2 µg/mL | MIC [4, 42]: 2 µg/mL | MIC [4, 43]: 1 µg/mL | MIC [4, 44]: 1 µg/mL | MIC ([4]; Pseudomonas aeruginosa, P. aeruginosa isolate 33, strain W5483-2): 1 µg/mL | MIC ([4]; Table 33, P. aeruginosa isolate 23, strain ATCC 27853): 1 μg · mL^1 | MIC ([4]; Table 33, P. aeruginosa isolate 24, strain 34): 64 μg · mL^1 | MIC ([4]; Table 33, P. aeruginosa isolate 25, strain 923-1): 1 μg · mL^1 | MIC ([4]; Table 33, P. aeruginosa isolate 26, strain 3101): 1 μg · mL^1 | MIC ([4]; Table 33, P. aeruginosa isolate 27, strain 14644): 1 μg · mL^1 | MIC ([4]; Table 33, P. aeruginosa isolate 28, strain 15036): 1 μg · mL^1 | MIC ([4]; Table 33, P. aeruginosa isolate 29, strain 15545): 2 μg · mL^1 | MIC ([4]; Table 33, P. aeruginosa isolate 30, strain B3999-1): 1 μg · mL^1 | MIC ([4]; Table 33, P. aeruginosa isolate 31, strain U7688-1): 2 μg · mL^1 | MIC ([4]; Table 33, P. aeruginosa isolate 32, strain W2897-1): 1 μg · mL^1 | MIC ([4]; Table 33, P. aeruginosa isolate 33, strain W5483-2): 2 μg · mL^1

O=C(O)c1cn(C2CC2)c2cc(N3CCNCC3)c(F)cc2c1=O [Ciprofloxacin]
MIC [1, 5]: 4 µg/mL | MIC [1, 45]: 8 µg/mL | MIC [1, 6]: 16 µg/mL | MIC [1, 7]: 32 µg/mL | MIC [1, 9]: 4 µg/mL | MIC [1, 10]: 4 µg/mL | MIC [1, 11]: 8 µg/mL | MIC [1, 12]: 8 µg/mL | MIC [1, 13]: 4 µg/mL | MIC [1, 46]: 4 µg/mL | MIC [3, 26]: 8 µg/mL | MIC [3, 27]: 8 µg/mL | MIC [4, 39]: 32 µg/mL | MIC [4, 40]: 16 µg/mL

CCN1CCN(C(=O)N[C@@H](C(=O)N[C@@H]2C(=O)N3[C@@H]2SC(C)(C)[C@@H]3C(=O)O)c2ccccc2)C(=O)C1=O [Piperacillin]
MIC ([1]; X. maltophila isolate 34, strain ATCC 13637): 1020 µg/mL | MIC [1, 45]: 1020 µg/mL | MIC [1, 6]: 512 µg/mL | MIC [1, 7]: 512 µg/mL | MIC [1, 8]: 512 µg/mL | MIC [1, 9]: 512 µg/mL | MIC [1, 10]: 1020 µg/mL | MIC [1, 11]: 1020 µg/mL | MIC [1, 12]: 1020 µg/mL | MIC [1, 13]: 1020 µg/mL | MIC [1, 46]: 512 µg/mL | MIC [2, 14]: 8 µg/mL | MIC [2, 15]: 4 µg/mL | MIC [2, 16]: 8 µg/mL | MIC [2, 17]: 8 µg/mL | MIC [2, 18]: 1020 µg/mL | MIC [2, 19]: 1020 µg/mL | MIC [2, 20]: 8 µg/mL | MIC [2, 21]: 64 µg/mL | MIC [2, 22]: 1020 µg/mL | MIC [2, 23]: 16 µg/mL | MIC [2, 24]: 4 µg/mL | MIC [3, 25]: 8 µg/mL | MIC [3, 26]: 16 µg/mL | MIC [3, 27]: 4 µg/mL | MIC [3, 28]: 16 µg/mL | MIC [3, 29]: 16 µg/mL | MIC [3, 30]: 32 µg/mL | MIC [3, 32]: 256 µg/mL | MIC [3, 33]: 32 µg/mL | MIC [3, 34]: 32 µg/mL | MIC [3, 47]: 1020 µg/mL | MIC [4, 36]: 1020 µg/mL | MIC [4, 37]: 64 µg/mL | MIC [4, 38]: 64 µg/mL | MIC [4, 39]: 512 µg/mL | MIC [4, 40]: 1020 µg/mL | MIC [4, 41]: 512 µg/mL | MIC [4, 42]: 512 µg/mL | MIC [4, 43]: 512 µg/mL | MIC [4, 44]: 64 µg/mL

C[C@@H](O)[C@H]1C(=O)N2C(C(=O)O)=C(SCCN=CN)C[C@H]12 [Imipenem]
MIC [2, 14]: 1 µg/mL | MIC [2, 15]: 2 µg/mL | MIC [2, 16]: 4 µg/mL | MIC [2, 17]: 2 µg/mL | MIC [2, 18]: 4 µg/mL | MIC [2, 19]: 2 µg/mL | MIC [2, 20]: 4 µg/mL | MIC [2, 21]: 4 µg/mL | MIC [2, 22]: 4 µg/mL | MIC [2, 23]: 2 µg/mL | MIC [2, 24]: 2 µg/mL | MIC [3, 25]: 2 µg/mL | MIC [3, 27]: 16 µg/mL | MIC [3, 28]: 2 µg/mL | MIC [3, 29]: 1 µg/mL | MIC [3, 30]: 4 µg/mL | MIC [3, 31]: 2 µg/mL | MIC [3, 32]: 2 µg/mL | MIC [3, 33]: 2 µg/mL | MIC [3, 34]: 4 µg/mL | MIC [3, 47]: 512 µg/mL | MIC [4, 35]: 8 µg/mL | MIC [4, 36]: 512 µg/mL | MIC [4, 37]: 4 µg/mL | MIC [4, 38]: 8 µg/mL | MIC [4, 39]: 16 µg/mL | MIC [4, 40]: 16 µg/mL | MIC [4, 41]: 256 µg/mL | MIC [4, 42]: 256 µg/mL
